Structures can show the parent of a compound that is named as a salt.
Experiments:
GluN2B = target: T1, GluN2B (Homo sapiens, UniProt Q05586+Q13224); assay: automated patch clamp of HEK293 cells stably expressing human GluN1/GluN2B; format: cell-based
T1 construct: gene GRIN2B; with GluN1 (Q05586)

GluN2A = target: T2, GluN2A (Homo sapiens, UniProt Q05586+Q12879)
T2 construct: gene GRIN2A

[1] = test system: T3, primary mouse cortical neurons; assay: cells; design: Protection from NMDA-induced (30 uM, 10 min) neuronal death; Hoechst nuclear morphology by automated microscopy; conditions: Cortical neurone, 20 h, read-out: % inhibition, inhibition of NMDA-induced cell death (protection score), 30 min pre-treatment
T3 construct: primary cortical neurons, DIV 10
Method in brief: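 On DIV 10, primary mouse cortical neurons were given compound at 10 μM for 30 min at 37 °C, then 30 μM NMDA for 10 min, washed, and kept 20 h with compound. Dead cells were scored by nuclear morphology, and % protection was derived from survival relative to vehicle + NMDA and untreated controls.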

T2 sequence (Q12879 23-1464, other chains not shown): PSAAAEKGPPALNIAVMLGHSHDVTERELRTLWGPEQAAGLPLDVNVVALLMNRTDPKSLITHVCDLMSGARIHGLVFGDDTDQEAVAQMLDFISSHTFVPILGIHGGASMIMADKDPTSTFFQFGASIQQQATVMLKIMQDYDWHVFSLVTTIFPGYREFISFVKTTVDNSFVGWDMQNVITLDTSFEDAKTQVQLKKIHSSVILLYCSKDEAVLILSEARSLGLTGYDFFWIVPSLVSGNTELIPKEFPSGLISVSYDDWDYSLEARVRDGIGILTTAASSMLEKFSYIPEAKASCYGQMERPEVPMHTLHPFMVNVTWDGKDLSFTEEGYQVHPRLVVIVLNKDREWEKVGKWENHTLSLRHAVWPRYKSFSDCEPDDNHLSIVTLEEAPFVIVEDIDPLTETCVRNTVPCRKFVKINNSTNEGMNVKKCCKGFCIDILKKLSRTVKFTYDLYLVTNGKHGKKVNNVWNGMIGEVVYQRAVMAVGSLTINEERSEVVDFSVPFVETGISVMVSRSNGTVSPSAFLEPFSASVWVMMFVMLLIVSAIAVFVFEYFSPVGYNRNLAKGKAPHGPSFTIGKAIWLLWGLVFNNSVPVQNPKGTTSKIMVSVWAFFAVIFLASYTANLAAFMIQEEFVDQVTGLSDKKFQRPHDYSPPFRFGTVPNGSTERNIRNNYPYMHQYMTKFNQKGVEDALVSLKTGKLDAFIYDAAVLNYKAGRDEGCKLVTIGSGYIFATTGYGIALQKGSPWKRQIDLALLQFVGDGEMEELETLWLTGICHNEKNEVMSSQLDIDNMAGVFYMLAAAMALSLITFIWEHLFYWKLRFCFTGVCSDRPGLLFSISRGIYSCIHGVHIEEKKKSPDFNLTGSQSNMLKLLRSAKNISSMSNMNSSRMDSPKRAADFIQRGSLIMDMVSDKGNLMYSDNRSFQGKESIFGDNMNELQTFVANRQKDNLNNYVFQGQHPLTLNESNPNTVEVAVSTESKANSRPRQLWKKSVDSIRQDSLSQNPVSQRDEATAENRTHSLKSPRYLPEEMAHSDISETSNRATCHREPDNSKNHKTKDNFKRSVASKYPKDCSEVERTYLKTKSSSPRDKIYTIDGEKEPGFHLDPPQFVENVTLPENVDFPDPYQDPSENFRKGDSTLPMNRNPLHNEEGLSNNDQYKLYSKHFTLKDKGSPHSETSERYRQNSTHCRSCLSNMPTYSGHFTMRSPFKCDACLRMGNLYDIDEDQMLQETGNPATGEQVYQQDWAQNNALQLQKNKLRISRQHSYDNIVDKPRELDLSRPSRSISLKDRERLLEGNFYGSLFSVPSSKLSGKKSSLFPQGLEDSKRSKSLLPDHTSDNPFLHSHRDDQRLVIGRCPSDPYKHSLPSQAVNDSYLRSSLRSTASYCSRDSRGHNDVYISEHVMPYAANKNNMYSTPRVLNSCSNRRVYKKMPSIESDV
T1 sequence (Q13224 27-1484, other chains not shown): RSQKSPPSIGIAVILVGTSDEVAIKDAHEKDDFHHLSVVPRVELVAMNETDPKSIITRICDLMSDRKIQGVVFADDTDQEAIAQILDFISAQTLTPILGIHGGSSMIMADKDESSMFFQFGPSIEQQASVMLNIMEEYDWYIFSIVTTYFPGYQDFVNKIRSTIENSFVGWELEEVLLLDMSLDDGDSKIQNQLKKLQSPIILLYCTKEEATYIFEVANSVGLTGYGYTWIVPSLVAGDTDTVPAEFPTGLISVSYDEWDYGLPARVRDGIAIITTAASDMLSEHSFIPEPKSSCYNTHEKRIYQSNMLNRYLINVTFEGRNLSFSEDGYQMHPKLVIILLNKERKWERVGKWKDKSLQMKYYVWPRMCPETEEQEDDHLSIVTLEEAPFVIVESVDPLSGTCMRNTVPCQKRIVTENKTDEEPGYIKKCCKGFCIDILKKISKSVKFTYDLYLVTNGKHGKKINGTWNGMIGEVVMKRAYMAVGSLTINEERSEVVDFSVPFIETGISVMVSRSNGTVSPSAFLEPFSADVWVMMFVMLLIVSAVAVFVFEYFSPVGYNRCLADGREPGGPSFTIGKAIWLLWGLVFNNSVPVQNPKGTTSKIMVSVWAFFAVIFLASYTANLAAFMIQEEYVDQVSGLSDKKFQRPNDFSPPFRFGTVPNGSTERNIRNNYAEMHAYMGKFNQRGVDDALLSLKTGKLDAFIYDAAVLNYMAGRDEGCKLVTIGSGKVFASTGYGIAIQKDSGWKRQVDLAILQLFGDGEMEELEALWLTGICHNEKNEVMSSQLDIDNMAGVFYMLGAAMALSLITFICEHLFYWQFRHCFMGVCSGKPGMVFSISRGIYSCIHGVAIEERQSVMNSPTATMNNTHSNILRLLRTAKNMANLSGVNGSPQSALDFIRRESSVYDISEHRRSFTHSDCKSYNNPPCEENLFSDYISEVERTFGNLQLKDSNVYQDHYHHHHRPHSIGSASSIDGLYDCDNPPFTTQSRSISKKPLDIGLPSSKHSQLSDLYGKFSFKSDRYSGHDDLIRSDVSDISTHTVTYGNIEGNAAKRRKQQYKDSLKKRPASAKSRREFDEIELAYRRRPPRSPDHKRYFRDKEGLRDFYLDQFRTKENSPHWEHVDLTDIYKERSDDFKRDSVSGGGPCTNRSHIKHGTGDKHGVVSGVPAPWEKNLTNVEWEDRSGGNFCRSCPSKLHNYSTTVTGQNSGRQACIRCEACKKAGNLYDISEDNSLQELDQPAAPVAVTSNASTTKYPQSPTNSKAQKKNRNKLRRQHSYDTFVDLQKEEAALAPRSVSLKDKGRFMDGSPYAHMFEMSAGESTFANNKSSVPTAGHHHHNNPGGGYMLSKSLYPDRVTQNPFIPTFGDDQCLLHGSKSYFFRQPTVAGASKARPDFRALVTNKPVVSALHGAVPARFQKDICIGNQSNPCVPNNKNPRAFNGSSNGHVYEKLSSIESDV

Structure (SMILES) | inhibition at 10 µM [1] | other results
N[C@H](CCCP(=O)(O)O)C(=O)O [D-APV] | – | IC50 (GluN2B): 1140 nM; IC50 (GluN2A): 1480 nM
Cc1ccc(O)c([C@H](CCN(C(C)C)C(C)C)c2ccccc2)c1 [Tolterodine tartrate (Detrol LA)] | -2.31% | –
CC1(C)O[C@@H]2[C@@H](CO[C@@]3(COS(N)(=O)=O)OC(C)(C)O[C@@H]23)O1 [Topiramate] | 11.4% | –
CC[C@@]1(O)C(=O)OCc2c1cc1n(c2=O)Cc2cc3c(CN(C)C)c(O)ccc3nc2-1 [Topotecan HCl] | -1.54% | –
CN(C)CCOc1ccc(/C(=C(/CCCl)c2ccccc2)c2ccccc2)cc1 [Toremifene Citrate (Fareston, Acapodene)] | -2.81% | –
Cc1cccc(Nc2ccncc2S(=O)(=O)NC(=O)NC(C)C)c1 [Torsemide (Demadex)] | 22% | –
COc1ccc(/C=C/C(=O)Nc2ccccc2C(=O)O)cc1OC [Tranilast (SB 252218)] | -11.4% | –
O=c1n(CCCN2CCN(c3cccc(Cl)c3)CC2)nc2ccccn12 [Trazodone hydrochloride (Desyrel)] | -1.4% | –
CC1=C(/C=C/C(C)=C/C=C/C(C)=C/C(=O)O)C(C)(C)CCC1 [Tretinoin (Aberela)] | -38.4% | –
C[C@]12C=CC(=O)C=C1CC[C@H]1[C@@H]3C[C@@H](O)[C@](O)(C(=O)CO)[C@@]3(C)C[C@H](O)[C@@]12F [Triamcinolone (Aristocort)] | 16.3% | –
CC1(C)O[C@@H]2C[C@H]3[C@@H]4CCC5=CC(=O)C=C[C@]5(C)[C@@]4(F)[C@@H](O)C[C@]3(C)[C@]2(C(=O)CO)O1 [Triamcinolone acetonide] | 59.8% | –
O=c1[nH]c(=O)n([C@H]2C[C@H](O)[C@@H](CO)O2)cc1C(F)(F)F [Trifluridine (Viroptic)] | 9.42% | –
C[C@]12CC[C@H]3[C@@H](CC[C@@]45O[C@@H]4C(O)=C(C#N)C[C@]35C)[C@@H]1CC[C@@H]2O [Trilostane] | 4.15% | –
CC(C)[C@]12O[C@H]1[C@@H]1O[C@]13[C@]1(O[C@H]1C[C@H]1C4=C(CC[C@@]13C)C(=O)OC4)[C@@H]2O [Triptolide] | -1.79% | –
CN1[C@@H]2CC[C@H]1C[C@@H](OC(=O)c1c[nH]c3ccccc13)C2 [Tropisetron] | -4.08% | –
O=C(OC1C[C@H]2CC[C@@H](C1)[N+]21CCCC1)C(O)(c1ccccc1)c1ccccc1 (stereo partly shown) [Trospium chloride (Sanctura)] | 7.49% | –
C[C@@H]1O[C@@H](OC[C@H]2O[C@@H](Oc3c(-c4ccc(OCCO)c(OCCO)c4)oc4cc(OCCO)cc(O)c4c3=O)[C@H](O)[C@@H](O)[C@@H]2O)[C@H](O)[C@H](O)[C@H]1O [Troxerutin] | 23.8% | –
C[C@H](CCC(=O)O)[C@H]1CC[C@H]2[C@@H]3[C@@H](O)C[C@@H]4C[C@H](O)CC[C@]4(C)[C@H]3CC[C@]12C [Ursodiol (Actigal Urso)] | 35.3% | –
C[C@H]1[C@H](C)CC[C@]2(C(=O)O)CC[C@]3(C)C(=CC[C@@H]4[C@@]5(C)CC[C@H](O)C(C)(C)[C@@H]5CC[C@]43C)[C@H]12 [Ursolic acid (Malol)] | 6.94% | –
CCCCC(=O)N(Cc1ccc(-c2ccccc2-c2nn[nH]n2)cc1)[C@H](C(=O)O)C(C)C [Valsartan (Diovan)] | -0.714% | –

Structure (SMILES) | inhibition at 10 µM [1] | other results
COc1cc2/c(=N/c3ccc(Br)cc3F)nc[nH]c2cc1OCC1CCN(C)CC1 [Vandetanib (Zactima)] | -8.86% | –
COc1cc(C=O)ccc1O [Vanillin] | -1.73% | –
COc1cc(CCC(C)=O)ccc1O [Vanillylacetone] | 7.76% | –
CCCc1nc(C)c2c(=O)nc(-c3cc(S(=O)(=O)N4CCN(CC)CC4)ccc3OCC)[nH]n12 [Vardenafil (Vivanza)] | -5.64% | –
COc1ccc(C(CN(C)C)C2(O)CCCCC2)cc1 (stereo not shown) [Venlafaxine] | 22.6% | –
COC[C@@H](c1ccc(C(F)(F)F)cc1)N1CCN(C2(C)CCN(C(=O)c3c(C)ncnc3C)CC2)C[C@@H]1C [Vicriviroc Malate] | 0.113% | –
Nc1ncnc2c1ncn2[C@@H]1O[C@H](CO)[C@@H](O)[C@@H]1O [Vidarabine (Vira-A)] | 20.1% | –
CC[C@]1(O)C[C@H]2CN(CCc3c([nH]c4ccccc34)[C@@](C(=O)OC)(c3cc4c(cc3OC)N(C=O)[C@H]3[C@@](O)(C(=O)OC)[C@H](OC(C)=O)[C@]5(CC)C=CCN6CC[C@]43[C@@H]65)C2)C1 [Vincristine] | -7.5% | –
CCC1=C[C@@H]2CN(C1)Cc1c([nH]c3ccccc13)[C@@](C(=O)OC)(c1cc3c(cc1OC)N(C)[C@H]1[C@@](O)(C(=O)OC)[C@H](OC(C)=O)[C@]4(CC)C=CCN5CC[C@]31[C@@H]54)C2 [Vinorelbine (Navelbine)] | -1.98% | –
C[C@@H](c1ncncc1F)[C@](O)(Cn1cncn1)c1ccc(F)cc1F [Voriconazole] | 17.5% | –
O=c1c2ccccc2oc2ccccc12 [Xanthone (Genicide)] | 7.85% | –
COC(=O)[C@@H]1[C@H]2C[C@H]3c4[nH]c5ccccc5c4CCN3C[C@@H]2CC[C@@H]1O [Yohimbine hydrochloride (Antagonil)] | 7.7% | –
Nc1ccn([C@H]2CC[C@@H](CO)O2)c(=O)n1 [Zalcitabine] | 3.28% | –
CC(c1cc2ccccc2s1)N(O)C(N)=O (stereo not shown) [Zileuton] | -10.2% | –
O=C1Cc2cc(CCN3CCN(c4nsc5ccccc45)CC3)c(Cl)cc2N1 [Ziprasidone hydrochloride] | 8.38% | –
O=P(O)(O)C(O)(Cn1ccnc1)P(=O)(O)O [Zoledronic Acid (Zoledronate)] | -0.211% | –
CN(C)CCc1c[nH]c2ccc(C[C@H]3COC(=O)N3)cc12 [Zolmitriptan (Zomig)] | 41.2% | –
NS(=O)(=O)Cc1noc2ccccc12 [Zonisamide] | -5.91% | –
CC[C@H](CC[C@@H](C)[C@H]1CC[C@H]2[C@@H]3CC=C4C[C@@H](O)CC[C@]4(C)[C@H]3CC[C@]12C)C(C)C [β-Sitosterol] | -0.368% | –

Source: publication PMC7489219 (Molecular Brain, 2020)
